In patent publication US20230000773A1, “NOVEL HEADGROUP LIPID COMPOUNDS AND COMPOSITIONS FOR INTRACELLULAR DELIVERY OF THERAPEUTIC AGENTS” (ModernaTX, Inc., priority 2019, published 2023):

Columns and labels:
hEPO mRNA = assay: hEPO expression in CD1-mice after intravenous administration of nanoparticles; assay type: in vivo; conditions: 6 h after intravenous administration, mRNA dose 0.5 mg/kg, N:P 3.4, compound:DSPC:cholesterol:PEG 2 50:10:38:2
Protocol: The expression of hEPO mRNA in CD1-mice was measured 6 h after intravenous administration of nanoparticles comprising a compound of the disclosure, DSPC, cholesterol, and PEG 2 in a ratio of 50:10:38:2. […] Each composition was dosed to 8 animals at an mRNA dose of 0.5 mg/kg.

[1] = Surface hydrophobicity by Generalized Polarization by Laurdan (GPL); assay type: physicochemical; conditions: normalized Generalized Polarization by Laurdan; higher N-GP = less polar surface
How it was run: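 LNPs contained ionizable lipid:DSPC:cholesterol:PEG lipid at 50:10:38:2 mol %. Laurdan was post-inserted into the particle surface, and its fluorescence spectrum gave normalized generalized polarization (N-GP); higher N-GP means a less polar surface.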

mRNA = mRNA integrity in nanoparticles by RP-IP HPLC (UV 260 nm); assay type: physicochemical
Protocol: Integrity of mRNA comprised in nanoparticles of the disclosure, i.e., the percentages of intact mRNA, mRNA adducts, and mRNA hydrolysis products, […] (Reverse-Phase Ion-Pairing HPLC) using UV detection at 260 nm. Total purity and impurities are calculated as percent peak area.

[2] = Heparin-sepharose binding of nanoparticles
serum protein ApoE = assay: ApoE binding affinity of nanoparticles (bead binding, flow cytometry)
Protocol: The ApoE binding affinity, i.e., the affinity of binding between nanoparticles comprising compounds of the disclosure and the serum protein ApoE, was determined by binding the nanoparticles to beads, then incubating them with known quantities of […]. The quantity of protein bound to the nanoparticle was then determined by flow cytometry.

[3] = Size and polydispersity index of nanoparticles comprising compounds of the disclosure; assay type: physicochemical; conditions: compound:DSPC:cholesterol:PEG 2 50:10:38:2 mol %
How it was run: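 LNPs contained test lipid:DSPC:cholesterol:PEG 2 at 50:10:38:2 mol %. Size and polydispersity index were measured by dynamic light scattering.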

[4] = Encapsulation efficiency (% EE), ribostar; assay type: physicochemical; conditions: nanoparticles, compound:DSPC:cholesterol:PEG 2 50:10:38:2 mol %
Text: The efficiency of encapsulation of a therapeutic and/or prophylactic describes the amount of therapeutic and/or prophylactic that is encapsulated or otherwise associated with a lipid nanoparticle (e.g., an empty LNP or a loaded LNP) after preparation, relative to the initial amount provided. The encapsulation efficiency is desirably high (e.g., close to 100%). The encapsulation efficiency may be measured, for example, by comparing the amount of therapeutic and/or prophylactic in a solution containing the lipid nanoparticle (e.g., an empty LNP or a loaded LNP) before and after breaking up the lipid nanoparticle (e.g., an empty LNP or a loaded LNP) with one or more organic solvents or detergents. Fluorescence may be used to measure the amount of free therapeutic and/or prophylactic (e.g., RNA) in a solution. For the lipid nanoparticles (e.g., empty LNPs or loaded LNPs) described herein, the encapsulation efficiency of a therapeutic and/or prophylactic may be at least 50%, for example 50%, 55%, 60%, 65%, 70%, 75%, 80%, 85%, 90%, 91%, 92%, 93%, 94%, 95%, 96%, 97%, 98%, 99%, or 100%. In some embodiments, the encapsulation efficiency may be at least 80%. In certain embodiments, the encapsulation efficiency may be at least 90%. In some embodiments, the encapsulation efficiency of the therapeutic and/or prophylactic agent is between 80% and 100%.
Nanoparticle compositions including a therapeutic and/or prophylactic can be optimized according to the selection of a compound according to Formula (I), (I-1), (A), (A-1), (A-1a), or (A-1b), the selection of additional lipids, the amount of each lipid in the lipid component, and the wt:wt ratio of the lipid component to the therapeutic and/or prophylactic. Nanoparticle compositions including DSPC as a phospholipid, cholesterol as a structural lipid, PEG 2 as a PEG lipid, and a compound according to Formula (I), (I-1), (A), (A-1), (A-1a), or (A-1b) were prepared. The ratios of the lipids were 50:10:38:2 mol % for the lipid according to Formula (I), (I-1), (A), (A-1), (A-1a), or (A-1b):DSPC:cholesterol:PEG 2. Tables 2a, 2b, and 3-5 summarize the characteristics of the formulations.
Table 4 summarizes the surface hydrophobicity of nanoparticles comprising compounds of the disclosure as determined by Generalized Polarization by Laurdan (GPL). Laurdan, a fluorescent aminonaphthalene ketone lipid, was post-inserted into the nanoparticle surface and the fluorescence spectrum of Laurdan was collected to determine the normalized Generalized Polarization (N-GP). Higher N-GP indicates a less polar surface.

[5] = Encapsulation efficiency (% EE), ribogreen; assay type: physicochemical; conditions: nanoparticles, compound:DSPC:cholesterol:PEG 2 50:10:38:2 mol %
How it was run: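 Encapsulated RNA fraction determined by fluorescence of free RNA before and after LNP disruption with detergent or solvent. LNPs contained ionizable lipid:DSPC:cholesterol:PEG lipid at 50:10:38:2 mol %.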

[6] = Apparent LNP pKa by 2-(p-toluidino)-6-napthalene sulfonic acid (TNS) assay; assay type: physicochemical; conditions: pH at half of maximum fluorescence
[7] = mRNA integrity after 2 weeks at 25° C., percent peak area
[8] = mRNA integrity at t = 0, percent peak area

SMILES: CCCCCCCCC(CC)OC(=O)CCCCCCCN(CCCCCCCC(=O)OC(CCCCCCCC)CCCCCCCC)CCCNC1=C(C(N)=O)C(=O)OC1 (stereo not drawn) [Compound 72, Heptadecan-9-yl 8-((3-((4-carbamoyl-5-oxo-2,5-dihydrofuran-3-yl)amino)propyl)(8-oxo-8-(undecan-3-yloxy)octyl)amino)octanoate]
- Avg. [hEPO] mIU/mL (hEPO mRNA): 7.36E+05 mIU/mL
- Average N-GP [1]: 0.988
- Adduct (mRNA; [7]): 24.9%
- Hydrolysis Product (mRNA; [7]): 23.5%
- Intact (mRNA; [7]): 51.6%
- Adduct (mRNA; [8]): 5.6%
- Hydrolysis Product (mRNA; [8]): 16.8%
- Intact (mRNA; [8]): 77.7%
- Relative % Area Bound by LNP [2]: 0%
- Median Fluorescence Intensity, PE (serum protein ApoE): 78901
- PDI [3]: 0.090
- Size (nm) [3]: 76.7 nm
- % EE (ribostar) [4]: 78.6%
- % EE (ribogreen) [5]: 91.2%
- LogIC50 (pKa) [6]: 6.39
